Data reported in publication PMC12175894 (Science Advances, 2025).
Substitutions are numbered along the chain they refer to. Read-outs that look alike come from different tables or passages of the source.

Experiments:
5-HT1DR = 5-HT1DR (Homo sapiens, UniProt P28221); experiment: BRET Gαi1 activation
muscarinic M2 = muscarinic M2 (Homo sapiens, UniProt P08172); experiment: Radioligand displacement, [3H]NMS
5-HT1AR wt = target: T1, 5-HT1AR wt (Homo sapiens, UniProt P08908); experiment: Radioligand competition, displacement of [3H]WAY100635; format: binding
T1 construct: host or cells: HEK293T, transient; membranes
T1 sequence (P08908 1-422): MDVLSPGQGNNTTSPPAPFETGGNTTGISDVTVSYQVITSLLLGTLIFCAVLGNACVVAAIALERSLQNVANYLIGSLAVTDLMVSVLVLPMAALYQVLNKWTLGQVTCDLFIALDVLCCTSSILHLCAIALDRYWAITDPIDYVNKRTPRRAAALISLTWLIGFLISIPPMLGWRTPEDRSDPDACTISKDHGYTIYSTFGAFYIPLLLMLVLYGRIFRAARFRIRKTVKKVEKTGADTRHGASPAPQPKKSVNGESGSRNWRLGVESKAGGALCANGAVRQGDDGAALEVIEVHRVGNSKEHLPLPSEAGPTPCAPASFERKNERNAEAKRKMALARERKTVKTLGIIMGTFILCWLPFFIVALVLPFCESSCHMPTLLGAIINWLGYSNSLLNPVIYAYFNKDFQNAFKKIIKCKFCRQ

opioid δOR = opioid δOR (Homo sapiens, UniProt P41143); experiment: Radioligand displacement, [3H]diprenorphine
Sequence of opioid δOR (P41143 whole entry): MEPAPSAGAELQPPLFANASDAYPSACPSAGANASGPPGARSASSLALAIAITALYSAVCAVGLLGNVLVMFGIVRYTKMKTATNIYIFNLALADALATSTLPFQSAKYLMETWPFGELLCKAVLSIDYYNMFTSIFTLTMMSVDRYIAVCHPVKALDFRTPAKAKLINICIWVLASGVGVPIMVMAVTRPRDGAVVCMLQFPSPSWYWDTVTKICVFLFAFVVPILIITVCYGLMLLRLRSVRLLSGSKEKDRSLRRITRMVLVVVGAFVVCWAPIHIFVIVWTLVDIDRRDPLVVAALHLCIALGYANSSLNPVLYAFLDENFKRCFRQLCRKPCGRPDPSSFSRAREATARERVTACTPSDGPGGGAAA

α2AR = α2AR (Homo sapiens, UniProt P08913); experiment: BRET Gαi1 activation
Sequence of α2AR (P08913 whole entry): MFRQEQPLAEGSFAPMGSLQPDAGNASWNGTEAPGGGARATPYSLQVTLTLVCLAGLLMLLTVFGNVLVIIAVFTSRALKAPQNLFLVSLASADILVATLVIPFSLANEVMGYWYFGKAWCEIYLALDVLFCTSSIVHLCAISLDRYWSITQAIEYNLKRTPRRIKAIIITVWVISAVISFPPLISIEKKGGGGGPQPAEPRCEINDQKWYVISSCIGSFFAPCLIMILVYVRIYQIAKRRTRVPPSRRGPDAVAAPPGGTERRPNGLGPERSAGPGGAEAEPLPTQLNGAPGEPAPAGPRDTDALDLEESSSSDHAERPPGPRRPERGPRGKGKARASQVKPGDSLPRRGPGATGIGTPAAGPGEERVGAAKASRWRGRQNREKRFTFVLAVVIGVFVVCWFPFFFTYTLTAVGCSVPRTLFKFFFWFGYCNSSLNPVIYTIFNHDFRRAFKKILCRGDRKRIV

5-HT1BR = 5-HT1BR (Homo sapiens, UniProt P28222); experiment: BRET Gαi1 activation
Sequence of 5-HT1BR (P28222 whole entry): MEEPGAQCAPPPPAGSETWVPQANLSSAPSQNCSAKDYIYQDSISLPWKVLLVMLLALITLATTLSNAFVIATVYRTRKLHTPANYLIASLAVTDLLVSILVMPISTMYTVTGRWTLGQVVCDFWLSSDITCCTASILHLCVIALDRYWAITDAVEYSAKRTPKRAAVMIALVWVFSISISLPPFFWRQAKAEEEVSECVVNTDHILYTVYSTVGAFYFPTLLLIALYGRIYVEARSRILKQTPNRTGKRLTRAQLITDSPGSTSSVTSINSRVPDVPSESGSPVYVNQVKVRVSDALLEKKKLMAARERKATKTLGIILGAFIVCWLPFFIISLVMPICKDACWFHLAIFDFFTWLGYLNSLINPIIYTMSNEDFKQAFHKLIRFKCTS

adrenergic α2B = adrenergic α2B (Homo sapiens, UniProt P18089); experiment: Radioligand displacement, [3H]RX821002
Sequence of adrenergic α2B (P18089 whole entry): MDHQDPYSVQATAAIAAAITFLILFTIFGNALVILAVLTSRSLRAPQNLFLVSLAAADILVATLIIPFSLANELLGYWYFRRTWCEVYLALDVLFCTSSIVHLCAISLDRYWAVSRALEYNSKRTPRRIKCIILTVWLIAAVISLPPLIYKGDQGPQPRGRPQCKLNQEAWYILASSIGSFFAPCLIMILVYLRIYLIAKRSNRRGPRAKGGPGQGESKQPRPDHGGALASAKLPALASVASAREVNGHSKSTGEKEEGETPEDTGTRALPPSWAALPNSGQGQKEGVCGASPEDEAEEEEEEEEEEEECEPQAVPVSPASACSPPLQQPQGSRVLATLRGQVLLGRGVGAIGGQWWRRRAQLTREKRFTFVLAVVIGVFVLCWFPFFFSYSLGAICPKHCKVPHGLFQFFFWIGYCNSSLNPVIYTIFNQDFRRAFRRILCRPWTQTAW

5-HT1AR [1] = target: T2, 5-HT1AR (Homo sapiens, UniProt P08908); experiment: β-arrestin 1 recruitment, enhanced bystander BRET in HEK293T with GRK2; details: HEK-293T, read-out: Emax, β-arrestin 1 recruitment
T2 sequence (P08908 1-422): T1 sequence (P08908 1-422)

muscarinic M1 = muscarinic M1 (Homo sapiens, UniProt P11229); experiment: Radioligand displacement, [3H]NMS
Sequence of muscarinic M1 (P11229 whole entry): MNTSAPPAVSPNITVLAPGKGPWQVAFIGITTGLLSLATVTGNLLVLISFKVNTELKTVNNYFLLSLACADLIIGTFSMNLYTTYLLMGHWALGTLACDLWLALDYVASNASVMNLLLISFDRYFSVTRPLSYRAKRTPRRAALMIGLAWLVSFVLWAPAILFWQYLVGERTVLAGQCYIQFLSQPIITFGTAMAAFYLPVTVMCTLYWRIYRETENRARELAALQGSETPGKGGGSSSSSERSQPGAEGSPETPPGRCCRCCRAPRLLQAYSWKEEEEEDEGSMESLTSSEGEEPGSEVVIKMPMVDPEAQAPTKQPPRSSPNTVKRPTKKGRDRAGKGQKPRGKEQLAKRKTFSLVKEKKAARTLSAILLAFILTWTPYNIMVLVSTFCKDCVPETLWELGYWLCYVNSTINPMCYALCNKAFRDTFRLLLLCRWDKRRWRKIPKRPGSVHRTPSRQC

5-HT1ER = 5-HT1ER (Homo sapiens, UniProt P28566); experiment: BRET Gαi1 activation
opioid µOR = opioid µOR (Homo sapiens, UniProt P35372); experiment: Radioligand displacement, [3H]diprenorphine
Sequence of opioid µOR (P35372 whole entry): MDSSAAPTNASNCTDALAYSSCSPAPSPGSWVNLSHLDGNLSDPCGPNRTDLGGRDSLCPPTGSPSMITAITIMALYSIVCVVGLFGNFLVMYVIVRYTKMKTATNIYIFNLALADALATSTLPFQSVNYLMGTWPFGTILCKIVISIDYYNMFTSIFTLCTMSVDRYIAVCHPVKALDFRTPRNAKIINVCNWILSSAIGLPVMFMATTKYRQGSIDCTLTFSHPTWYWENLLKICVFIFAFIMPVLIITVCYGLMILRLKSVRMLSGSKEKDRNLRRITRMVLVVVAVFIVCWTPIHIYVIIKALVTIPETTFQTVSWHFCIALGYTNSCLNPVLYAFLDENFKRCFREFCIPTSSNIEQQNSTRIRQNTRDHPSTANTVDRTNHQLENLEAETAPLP

opioid κOR = opioid κOR (Homo sapiens, UniProt P41145); experiment: Radioligand displacement, [3H]diprenorphine
Sequence of opioid κOR (P41145 whole entry): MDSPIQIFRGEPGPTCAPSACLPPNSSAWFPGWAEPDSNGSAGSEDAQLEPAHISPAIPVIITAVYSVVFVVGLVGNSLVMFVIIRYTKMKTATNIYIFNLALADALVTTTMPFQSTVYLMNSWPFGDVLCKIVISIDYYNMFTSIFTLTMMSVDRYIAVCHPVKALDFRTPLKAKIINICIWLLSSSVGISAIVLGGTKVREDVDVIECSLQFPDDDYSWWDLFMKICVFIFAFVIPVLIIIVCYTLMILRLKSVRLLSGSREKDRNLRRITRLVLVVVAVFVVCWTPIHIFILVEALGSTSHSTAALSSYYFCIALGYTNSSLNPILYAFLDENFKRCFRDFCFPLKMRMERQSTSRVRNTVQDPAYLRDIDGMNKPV

[2] = target: T3, 5-HT1AR F112^3.28W + M92^2.60F (Homo sapiens, UniProt P08908, F112W/M92F); experiment: Radioligand competition, displacement of [3H]WAY100635; format: binding; details: 5-HT1AR F112W + M92F; HEK 293T membranes; read-out: Ki [nM ± SEM]
T3 sequence (P08908 1-422 M92F/F112W): T1 sequence (P08908 1-422) with M92F, F112W

adrenergic β1 = adrenergic β1 (Homo sapiens, UniProt P08588); experiment: Radioligand displacement, [3H]CGP12177
Sequence of adrenergic β1 (P08588 whole entry): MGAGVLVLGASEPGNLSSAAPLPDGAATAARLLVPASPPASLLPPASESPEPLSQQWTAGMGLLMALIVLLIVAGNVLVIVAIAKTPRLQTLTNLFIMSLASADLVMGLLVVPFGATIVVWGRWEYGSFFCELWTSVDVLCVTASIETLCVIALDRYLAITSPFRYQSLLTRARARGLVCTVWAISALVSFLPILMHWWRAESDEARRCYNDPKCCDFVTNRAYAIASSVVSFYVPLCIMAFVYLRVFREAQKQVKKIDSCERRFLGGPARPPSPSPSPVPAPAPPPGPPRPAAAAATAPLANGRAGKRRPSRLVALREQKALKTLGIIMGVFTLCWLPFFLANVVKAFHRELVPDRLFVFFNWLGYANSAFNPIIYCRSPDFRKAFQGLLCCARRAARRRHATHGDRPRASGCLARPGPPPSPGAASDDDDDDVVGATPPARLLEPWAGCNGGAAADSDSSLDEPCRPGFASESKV

adrenergic α2C = adrenergic α2C (Homo sapiens, UniProt P18825); experiment: Radioligand displacement, [3H]RX821002
Sequence of adrenergic α2C (P18825 whole entry): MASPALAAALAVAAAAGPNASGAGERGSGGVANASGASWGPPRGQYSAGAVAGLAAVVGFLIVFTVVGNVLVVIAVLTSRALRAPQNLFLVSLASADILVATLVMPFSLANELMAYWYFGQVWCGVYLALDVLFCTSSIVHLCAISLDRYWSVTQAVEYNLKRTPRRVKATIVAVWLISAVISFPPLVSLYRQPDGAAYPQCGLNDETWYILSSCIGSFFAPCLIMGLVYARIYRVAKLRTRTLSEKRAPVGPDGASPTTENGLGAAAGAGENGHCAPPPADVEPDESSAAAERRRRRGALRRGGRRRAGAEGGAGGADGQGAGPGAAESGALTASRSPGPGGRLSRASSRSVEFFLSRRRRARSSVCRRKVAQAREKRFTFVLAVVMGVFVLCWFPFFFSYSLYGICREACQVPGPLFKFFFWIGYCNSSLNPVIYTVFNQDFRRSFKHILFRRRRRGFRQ

5-HT1FR = 5-HT1FR (Homo sapiens, UniProt P30939); experiment: BRET Gαi1 activation
5-HT1AR [3] = target: T2, 5-HT1AR; experiment: IP-One accumulation with hybrid Gαqi in HEK293T; format: cell-based; design: host or cells: HEK293T, HEK293A, HEK293AΔGs, HEK293AΔGi/o, HEK293AΔARRB1/B2

Sequence of muscarinic M2 (P08172 whole entry): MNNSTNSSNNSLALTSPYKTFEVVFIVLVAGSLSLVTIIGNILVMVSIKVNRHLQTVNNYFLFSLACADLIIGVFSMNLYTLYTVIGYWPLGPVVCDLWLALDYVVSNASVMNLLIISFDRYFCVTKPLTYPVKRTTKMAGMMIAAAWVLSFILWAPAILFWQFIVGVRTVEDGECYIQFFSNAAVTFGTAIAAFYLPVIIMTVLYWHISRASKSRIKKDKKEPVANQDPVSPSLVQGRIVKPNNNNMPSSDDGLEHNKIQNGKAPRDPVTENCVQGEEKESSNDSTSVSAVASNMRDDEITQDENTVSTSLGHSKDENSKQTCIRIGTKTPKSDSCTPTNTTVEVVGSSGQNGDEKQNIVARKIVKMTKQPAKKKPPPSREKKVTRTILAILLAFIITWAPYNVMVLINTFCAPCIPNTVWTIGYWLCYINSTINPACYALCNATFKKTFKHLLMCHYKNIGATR
Sequence of 5-HT1DR (P28221 whole entry): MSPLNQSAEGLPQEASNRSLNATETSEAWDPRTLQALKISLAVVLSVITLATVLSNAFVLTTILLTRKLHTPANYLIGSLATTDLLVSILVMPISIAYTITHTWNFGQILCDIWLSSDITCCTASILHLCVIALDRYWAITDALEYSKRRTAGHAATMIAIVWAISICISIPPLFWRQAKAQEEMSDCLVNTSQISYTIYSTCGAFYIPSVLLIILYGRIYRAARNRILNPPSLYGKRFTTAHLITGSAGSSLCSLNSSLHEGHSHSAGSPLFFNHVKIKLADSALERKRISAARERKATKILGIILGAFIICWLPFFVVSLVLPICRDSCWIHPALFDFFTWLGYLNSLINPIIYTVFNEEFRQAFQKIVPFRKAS

With `COc1ccccc1OCCNCCCOc1ccc2c(c1)NC(=O)CO2` [ST171] the EC50 (5-HT1DR) was 5.7 nM, the Emax (5-HT1DR) was 54% and the Ki (muscarinic M2; Ki [nM ± SD]) was 18000 ± 9200 nM. The Ki (muscarinic M2; pKi) was 16300 nM, the Ki (5-HT1AR wt; 5-HT1A, read-out: pKi (converted)) was 0.369 nM and the Ki (5-HT1AR wt; 5-HT1AR wt, membranes from transiently transfected HEK 293T cells, read-out: Ki [nM ± SEM]) was 0.41 nM. For the same molecule, the Ki (opioid δOR; Ki [nM ± SD]) was 24000 ± 3500 nM, the Ki (opioid δOR; pKi) was 23400 nM and the intrinsic activity (α2AR) was “devoid of intrinsic activity”. For the same molecule, the EC50 (5-HT1BR) was 3.7 nM, the Emax (5-HT1BR) was 94% and the Ki (adrenergic α2B; Ki [nM ± SD]) was 110 ± 60 nM. The Ki (adrenergic α2B; pKi) was 103 nM, the Emax (5-HT1AR [1]) was under 5% and the Ki (muscarinic M1; Ki [nM ± SD]) was 10000 ± 920 nM. It also gave a Ki (muscarinic M1; pKi) of 10300 nM, an Emax (5-HT1ER) of under 10% and a Ki (opioid µOR; Ki [nM ± SD], µOR) of 8600 ± 2100 nM. The Ki (opioid µOR; Ki, opioid receptor family) was over 5000 nM, the Ki (opioid µOR; pKi, µOR) was 8430 nM and the Ki (opioid κOR; Ki [nM ± SD]) was 6200 ± 850 nM. For the same molecule, the Ki (opioid κOR; pKi) was 6280 nM, the Ki [2] was 0.044 nM and the Ki (adrenergic β1; Ki [nM ± SD]) was 1700 ± 350 nM. The Ki (adrenergic β1; pKi) was 1630 nM, the Ki (adrenergic α2C; Ki [nM ± SD]) was 28 ± 12 nM and the Ki (adrenergic α2C; pKi) was 25.9 nM. The Emax (5-HT1FR) was under 10%, the Emax (5-HT1AR [3]; HEK-293T, read-out: Emax[Gqi], IP accumulation) was 43% and the EC50 (5-HT1AR [3]; hybrid Gαqi, HEK293T, read-out: EC50[Gqi], IP accumulation) was 13 ± 2.9 nM.
